Usually vapor or sublimation pressure stands for the equilibrium pressure above the liquid or solid.

Here are results for 3 compounds from the NIST ThermoML archive (doi:10.1021/acs.jced.5b01044).

For the series the following is noted: Liquid, Ebulliometric method (Recirculating still).

Numbers after ± are expanded uncertainties.

With `OCCO` [1,2-ethanediol], the “vapor or sublimation pressure” value (470.22 K) amounted to 101.3 ± 0.5 kPa.
Turning to `Cc1ccc(C)cc1` [1,4-dimethylbenzene], the “vapor or sublimation pressure” value (411.21 K) was found to be 101.3 ± 0.5 kPa.
As for `CC(C)(CO)CO` [2,2-dimethyl-1,3-propanediol], the “vapor or sublimation pressure” value (478.95 K) is recorded as 101.3 ± 0.5 kPa.
